Results reported in patent publication US11084795B2, “CFTR regulators and methods of use thereof” (The Regents of the University of California, priority 2015, dated 2021).
pEC50: −log10 of the molar value. Converted amounts (≈) assume the structure as drawn. “Also recorded” adds a separate entry of the source.

Legend:
[1] = tested on: C3H/HeJ mice; assay: Genetic mouse model of chronic constipation (C3H/HeJ); type: in vivo
Procedure: The efficacy of orally administered CFTRact-J027 (10 mg/kg) was also tested in a genetically constipated mouse strain (15) (C3H/HeJ, age 8-11 weeks) and their wildtype counterparts (C3H/HeOuJ, age 8-11 weeks). Mice were placed in metabolic cages after CFTRact-J027 or vehicle administration at zero time and stool was collected for 4 h. Stool weight, pellet number and water content were determined as described above. Whole-gut transit time was measured to assess gut motility, in which mice treated with CFTRact-J027 (10 mg/kg, ip) or vehicle at zero time were given with 100 μL blue marker (5% Evans blue, 5% gum Arabic) orally. The time of blue dye appearance in stool was determined. All experiments in C3H/HeJ and C3H/HeOuJ mice were done in paired animals to minimize variability.

[2] = tested on: Cl− secretion in mouse colon; assay: Short-circuit current in freshly isolated mouse colon; settings: read-out: EC50 for increase in short-circuit current in mouse colon
Description: Short-circuit current measurement.

[3] = Solubility; type: physicochemical; settings: read-out: solubility limit
[4] = Pharmacokinetics in mice (plasma LC/MS); type: in vivo, mouse
Procedure: (§1) Blood was collected at 15, 30, 60, 150, 240 and 360 min after treatment by orbital puncture and centrifuged at 5000 rpm for 15 min to separate plasma. Plasma samples (60 μL) were mixed with 300 μL acetonitrile and centrifuged at 13000 rpm for 20 min, and 90 μL of the supernatant was used for LC/MS. The solvent system consisted of a linear gradient from 5 to 95% acetonitrile over 16 min (0.2 ml/min flow). Mass spectra was acquired on a mass spectrometer (Waters 2695 and Micromass ZQ) using electrospray (+) ionization, mass ranging from 100 to 1500 Da, cone voltage 40 V. Calibration standards were prepared in plasma from untreated mice to which known amounts of CFTRact-J027 were added.
as §1, with “Pharmacokinetics. […] Blood” for “Blood”

[5] = 7-day oral administration toxicity study in mice; type: in vivo, mouse
Description: Chronic administration and toxicity studies.

[6] = In vitro metabolic stability in human liver microsomes; type: in vitro ADME
Procedure: To study gastric acid stability CFTRact-J027 (10 μM) was dissolved in simulated gastric fluid (0.2 NaCl, 0.7% HCl, pH 2) and incubated for 3 h at 37° C. To study in vitro metabolic stability CFTRact-J027 (5 μM) was incubated for specified times at 37° C. with human liver microsomes (1 mg protein/ml; Sigma-Aldrich) in potassium phosphate buffer (100 mM) containing 1 mM NADPH. After specified incubation periods the mixtures were chilled on ice, and 0.5 ml of ice-cold ethyl acetate was added. Samples were centrifuged for 15 min at 3000 rpm, the supernatants evaporated to dryness, and the residues were dissolved in 100 μL mobile phase (acetonitrile:water, 3:1) and assayed by liquid chromatography mass spectrometry (LC/MS). The solvent system consisted of a linear gradient from 5 to 95% acetonitrile over 16 min (0.2 ml/min flow). Mass spectra were acquired on a mass spectrometer (Waters 2695 and Micromass ZQ, Milford, Mass.) using electrospray (+) ionization, mass ranging from 100 to 1500 Da, cone voltage 40 V.

[7] = 10 mg/kg orally once per day, 7 days, mean

SMILES: Nc1ccc([N+](=O)[O-])cc1-c1nc2ccccc2n(Cc2ccccc2)c1=O [CFTRact-J027, 3-(2-amino-5-nitrophenyl)-1-benzylquinoxalin-2(1H)-one]
- whole-gut transit time in C3H/HeJ mice ([1]; 10 mg/kg ip): normalized the increased whole-gut transit time
- 4-h stool weight, pellet number and water content ([1]; 10 mg/kg oral, C3H/HeJ mice): increased 4-h stool weight, pellet number and water content in C3H/HeJ mice to the level of wildtype controls
- stool parameters and whole-gut transit time in wildtype control mice ([1]; C3H/HeOuJ mice): did not affect stool parameters or whole-gut transit time
- pEC50 [2]: ~6.52
- solubility [3]: ~20 µM (≈ 7.45 µg/mL)
- serum concentration at 150 min ([4]; 10 mg/kg ip): undetectable
- oral bioavailability ([4]; 10 mg/kg oral): very low bioavailability; also recorded: minimal bioavailability
- serum concentration at other time points ([4]; 10 mg/kg oral): undetectable
- half-life ([4]; female, CD1, mouse, serum, 10 mg/kg ip, read-out: serum elimination half-life): 16 min
- concentration at 30 min ([4]; female, CD1, mouse, serum, 10 mg/kg oral): 180 nM
- toxicity after chronic administration ([5]; 10 mg/kg oral): without apparent toxicity
- ALP [5, 7]: 53 U/L
- ALT [5, 7]: 44 U/L
- AST [5, 7]: 105 U/L
- Albumin [5, 7]: 2.9 g/dL
- BUN [5, 7]: 18.4 mg/dL
- Bicarbonate [5, 7]: 16 mmol/L
- CK [5, 7]: 312 U/L
- Calcium [5, 7]: 8.5 mg/dL
- Chloride [5, 7]: 115 mmol/L
- Cholesterol [5, 7]: 121 mg/dL
- Creatinine [5, 7]: 0.2 mg/dL
- Globulin [5, 7]: 2.2 g/dL
- Glucose [5, 7]: 164 mg/dL
- Hemoglobin [5, 7]: 12.8 g/dL
- Leukocytes [5, 7]: 1.9 ± 10^3/μL
- Phosphorus [5, 7]: 6.8 mg/dL
- Potassium [5, 7]: 4.4 mmol/L
- Sodium [5, 7]: 151 mmol/L
- Thrombocytes [5, 7]: 900 ± 10^3/μL
- Total bilirubin [5, 7]: 0.1 mg/dL
- Total protein [5, 7]: 5.2 g/dL
- lung water content ([5]; 7-day treated mice): normal lung water content
- major serum chemistry and blood parameters ([5]; 7-day treated mice): did not affect the major serum chemistry and blood parameters
- body weight and airway/lung fluid accumulation ([5]; 7-day treated mice, 10 mg/kg oral): nor did it change body weight or produce airway/lung fluid accumulation
- compound remaining at 60 min ([6]; human hepatic microsomes): 34%
- half-life at 5 μM ([6]; human, liver microsomes, 5 μM, NADPH, read-out: elimination half-life in human hepatic microsomes): ~35 min
